Results reported in ChEMBL document CHEMBL1151281, “Botcinins A, B, C, and D, metabolites produced by Botrytis cinerea, and their antifungal activity against Magnaporthe grisea, a pathogen of rice blast disease” (2005).
Converted amounts (≈) assume the structure as drawn. The source made the active and inactive calls. The rule behind the calls is not given here.

Key:
[1] = system: Pyricularia grisea; assay: Antifungal activity against Magnaporthe grisea IFO 30733 after 3 days; assay type: functional; settings: IFO 30733, 72 h
[2] = system: Pyricularia grisea; assay: Antifungal activity against Magnaporthe grisea IFO 30733 at 800 uM after 3 days; assay type: functional, organism-based

Row | SMILES | MIC [1] | Activity [2]
1 | CCCC[C@H](O)/C=C/C(=O)O[C@@H]1[C@@H](C)[C@@H]2OC(=O)[C@H](C)[C@H](OC(C)=O)[C@@]2(C)O[C@H]1C [BOTCININ A] | 100 µM (≈ 42.7 µg/mL) | –
2 | CCCC[C@H](O)/C=C/C(=O)O[C@@H]1[C@@H](C)[C@@H]2OC(=O)C(C)=C[C@@]2(C)O[C@H]1C [BOTCININ D] | 12.5 µM (≈ 4.58 µg/mL) | –
3 | CCCC[C@H](O)CCC(=O)O[C@@H]1[C@@H](C)[C@@H]2OC(=O)[C@H](C)[C@H](OC(C)=O)[C@@]2(C)O[C@H]1C | 100 µM (≈ 42.9 µg/mL) | –
4 | CCCCCC[C@H](O)/C=C/C(=O)O[C@@H]1[C@@H](C)[C@@H]2OC(=O)[C@@H](C)[C@H](OC(C)=O)[C@@]2(C)O[C@H]1C [BOTCININ C] | 100 µM (≈ 45.5 µg/mL) | –
5 | CCCCCC[C@H](O)/C=C/C(=O)O[C@@H]1[C@@H](C)[C@@H]2OC(=O)[C@H](C)[C@H](OC(C)=O)[C@@]2(C)O[C@H]1C [BOTCININ B] | 12.5 µM (≈ 5.68 µg/mL) | –
6 | CC(=O)O[C@H]1[C@@H](C)C(=O)O[C@H]2[C@H](C)[C@@H](O)[C@H](C)O[C@@]21C | – | inactive
